The text below walks through data of patent EP4818158A1, “BIARYL COMPOUND” (Kissei Pharmaceutical Co., Ltd., priority 2023, dated 2025).

The target in the experiment is T1, human TSHR (Homo sapiens, UniProt P16473).
T1 construct: expressed in transfected cells
T1 sequence (P16473 21-764): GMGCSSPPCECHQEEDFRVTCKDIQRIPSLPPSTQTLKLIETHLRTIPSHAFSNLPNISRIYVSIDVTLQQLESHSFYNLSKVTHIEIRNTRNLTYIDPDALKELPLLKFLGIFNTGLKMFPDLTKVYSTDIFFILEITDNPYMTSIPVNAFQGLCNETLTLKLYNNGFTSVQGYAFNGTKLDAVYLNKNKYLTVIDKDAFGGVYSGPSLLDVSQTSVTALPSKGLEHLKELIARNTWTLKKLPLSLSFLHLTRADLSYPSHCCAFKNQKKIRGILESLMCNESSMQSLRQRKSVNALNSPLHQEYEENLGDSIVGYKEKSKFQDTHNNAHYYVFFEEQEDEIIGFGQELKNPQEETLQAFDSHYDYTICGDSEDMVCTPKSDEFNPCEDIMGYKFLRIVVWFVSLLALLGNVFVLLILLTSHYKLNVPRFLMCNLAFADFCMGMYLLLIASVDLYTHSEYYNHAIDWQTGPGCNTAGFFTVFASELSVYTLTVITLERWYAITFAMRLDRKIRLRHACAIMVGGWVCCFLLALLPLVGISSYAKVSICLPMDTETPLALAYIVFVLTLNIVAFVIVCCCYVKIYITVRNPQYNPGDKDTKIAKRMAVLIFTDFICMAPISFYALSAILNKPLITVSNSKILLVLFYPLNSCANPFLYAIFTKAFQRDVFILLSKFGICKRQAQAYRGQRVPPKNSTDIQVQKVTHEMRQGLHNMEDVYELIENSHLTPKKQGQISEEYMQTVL
As to the kind of experiment: Antagonist activity using TSH-induced cAMP generation in human TSHR-stably expressing CHO cells. The following applies: human TSH 50 ng/mL. It counts as cell-based. The protocol: Measurement of antagonist activity using TSH-induced cAMP generation in human TSHR-stably expressing CHO cells as an indicator
The gene sequence (reference number: NM_000369.2) of a human TSHR was inserted into multiple cloning sites of pcDNA3.1 (+). Prepared plasmid vectors were introduced into CHO cells using a lipofection method, and human TSHR-stably expressing CHO cells were established. Obtained cells were seeded in a 96-well poly-D-lysine-coated plate at 5 × 10^4 cells/well and cultured in an F12 culture medium containing 10%FBS, 400 µg/mL of G418, 50 U/mL of penicillin, and 50 µg/mL of streptomycin under conditions of 37°C and 5% CO2 for one day. After the culture medium was removed, the cells were washed twice with 100 µL of an assay buffer solution (Hanks' Balanced Salt Solution containing 20 mM HEPES and 1 mM IBMX) per well. 30 µL of a test compound-containing assay buffer solution was added to the well and incubated at room temperature for 15 minutes. Next, 30 µL of an assay buffer solution containing human TSH (final concentration: 50 ng/mL, R&D Systems, Inc.) was added thereto and incubated at 37°C for one hour. A supernatant was removed, a Lysis and Detection Buffer 2(Cisbio) was added thereto, and the mixture was incubated at room temperature for one hour to prepare a cell lysate. According to the instruction manual of a cAMP Gs HiRange kit (Cisbio), the cell lysate, d2-labeled cAMP, and anti-cAMP Europium Cryptate labeled antibodies (Cisbio) were reacted together in a 384-well white microplate. Next, fluorescence intensity ratios (measurement wavelengths: 665 nm/620 nm) were measured using a multi-plate reader (PHERAstar FSX, BMG LABTECH, Japan). The fluorescence intensity ratio of each sample was converted to a cAMP content using a standard curve. The cAMP content was converted as a percentage of the control value to calculate a cAMP generation rate. The cAMP generation rates were plotted against the test compound concentrations using Prism (Graph Pad Software Inc.) to calculate IC50 values. The IC50's of the individual test compounds are shown in the above tables. In the tables, IC50 < 0.3 µM was denoted as A, and 0.3 µM ≤ IC50 < 30 µM was denoted as B. Cases where the IC50 values were not calculated for test compounds from which activity was recognized are denoted as C.
As to `CC1(OC(=O)Nc2ccc(-c3cccnc3CNC(N)=O)c(Cc3ccccc3F)c2F)CC1` [Example A-4, 1-Methylcyclopropyl (2-fluoro-3-(2-fluorobenzyl)-4-(2-(ureidomethyl)pyridin-3-yl)phenyl)carbamate], the IC50 was below 300 nM.

`C[C@@H](OC(=O)Nc1ccc(-c2cccnc2CCC(N)=O)c(Cc2ncccc2F)c1F)C1CC1` [Example F-3, (R)-1-Cyclopropylethyl (4-(2-(3-amino-3-oxopropyl)pyridin-3-yl)-2-fluoro-3-((3-fluoropyridin-2-yl)methyl)phenyl)carbamate] had an IC50 below 300 nM.

Compound `C[C@H]1CN(Cc2c(-c3cccnc3CNC(N)=O)ccc(NC(=O)OC(C)(C)C)c2F)CCO1` [Example F-5, tert-Butyl (S)-(2-fluoro-3-((2-methylmorpholino)methyl)-4-(2-(ureidomethyl)pyridin-3-yl)phenyl)carbamate] registered a half-maximal inhibitory concentration (IC50) above 30000 nM.

The compound `Cc1cnc(CNC(N)=O)c(-c2ccc(NC(=O)OC(C)(C)C)c(F)c2Cc2ccccc2F)c1` [Example A-10, tert-Butyl (2-fluoro-3-(2-fluorobenzyl)-4-(5-methyl-2-(ureidomethyl)pyridin-3-yl)phenyl)carbamate] came in with a concentration for half-maximal inhibition (IC50) of 300 to 30000 nM.

Take `NC(=O)CCc1ncccc1-c1ccc(NC(=O)OC2CC(F)(F)C2)c(F)c1C(=O)c1ccccc1C(F)(F)F` [Example E-9, 3,3-Difluorocyclobutyl (4-(2-(3-amino-3-oxopropyl)pyridin-3-yl)-2-fluoro-3-(2-(trifluoromethyl)benzoyl)phenyl)carbamate]: the IC50 fell in the range of 300 to 30000 nM.

With `CC(C)(C)OC(=O)Nc1ccc(-c2cccnc2CCC(N)=O)c(Cc2ccccc2C#N)c1F` [Example A-39, tert-Butyl (4-(2-(3-amino-3-oxopropyl)pyridin-3-yl)-3-(2-cyanobenzyl)-2-fluorophenyl)carbamate], the IC50 is below 300 nM.

With `NC(=O)CCc1ncccc1-c1ccc(NC(=O)OCC2CC(F)(F)C2)c(F)c1C(=O)c1ccccc1F` [Example E-7], the IC50 is below 300 nM.

`NC(=O)CCc1nnccc1-c1ccc(NC(=O)OC2CC(F)(F)C2)c(F)c1Cc1ccccc1F` [Example C-8] returned a half-inhibitory concentration (IC50) below 300 nM.

For `NC(=O)NCc1ncccc1-c1ccc(NC(=O)OCC2(C(F)F)CC2)c(F)c1Cc1ccccc1F` [Example A-34], the IC50 was below 300 nM.

`CN(C)CCCOC(=O)Nc1ccc(-c2cccnc2CNC(N)=O)c(Cc2ccccc2F)c1F` [Example A-30, 3-(Dimethylamino)propyl (2-fluoro-3-(2-fluorobenzyl)-4-(2-(ureidomethyl)pyridin-3-yl)phenyl)carbamate] returned a half-maximal inhibitory concentration (IC50) of 300 to 30000 nM.

In turn, `NC(=O)CCc1ncccc1-c1ccc(NC(=O)OC2CC(F)(F)C2)c(F)c1C(=O)c1ccccc1F` [Example E-6] showed a 50% inhibitory concentration (IC50) of 300 to 30000 nM.

Take `NC(=O)NCc1ncccc1-c1ccc(NC(=O)NC2CCCC2)c(F)c1Cc1ccccc1F` [Example G-8, 1-Cyclopentyl-3-(2-fluoro-3-(2-fluorobenzyl)-4-(2-(ureidomethyl)pyridin-3-yl)phenyl)urea]: the IC50 is below 300 nM.

The compound `CC(C)(C)OC(=O)Nc1ccc(-c2cccnc2CNC(N)=O)c(CN2CC3CCC(C2)O3)c1F` [Example F-7, tert-Butyl (3-((8-oxa-3-azabicyclo[3.2.1]octan-3-yl)methyl)-2-fluoro-4-(2-(ureidomethyl)pyridin-3-yl)phenyl)carbamate] had an IC50 of 300 to 30000 nM.

Regarding `CC(C)(C)OC(=O)Nc1ccc(-c2cccnc2CNC(N)=O)c(Cc2c(F)cccc2C#N)c1F` [Example A-3, tert-Butyl (3-(2-cyano-6-fluorobenzyl)-2-fluoro-4-(2-(ureidomethyl)pyridin-3-yl)phenyl)carbamate], the IC50 was 300 to 30000 nM.

On to `CC(C)(C)OC(=O)Nc1ccc(-c2cccnc2CNC(N)=O)c(Oc2ccccc2)c1F` [Example B-1, tert-Butyl (2-fluoro-3-phenoxy-4-(2-(ureidomethyl)pyridin-3-yl)phenyl)carbamate], for which the half-maximal inhibitory concentration (IC50) was below 300 nM.

`COC[C@H](C)OC(=O)Nc1ccc(-c2cccnc2CNC(N)=O)c(Cc2ccccc2F)c1F` [Example A-25, (S)-1-Methoxypropan-2-yl (2-fluoro-3-(2-fluorobenzyl)-4-(2-(ureidomethyl)pyridin-3-yl)phenyl)carbamate]: the IC50 fell in the range of 300 to 30000 nM.

Compound `CC(C)(C)OC(=O)Nc1ccc(-c2cccnc2CNC(N)=O)c(Cc2ccccc2C#N)c1F` [Example A-2, tert-Butyl (3-(2-cyanobenzyl)-2-fluoro-4-(2-(ureidomethyl)pyridin-3-yl)phenyl)carbamate] had a half-inhibitory concentration (IC50) of 300 to 30000 nM.

As to `NC(=O)NCc1ncccc1-c1ccc(NC(=O)N2CC3(CCC3)C2)c(F)c1Cc1ccccc1F` [Example G-7, N-(2-Fluoro-3-(2-fluorobenzyl)-4-(2-(ureidomethyl)pyridin-3-yl)phenyl)-2-azaspiro[3.3]heptane-2-carboxamide], the IC50 is below 300 nM.

The compound `CC(C)(C)OC(=O)Nc1c(F)cc(-c2cccnc2CNC(N)=O)c(Cc2ccccc2F)c1F` [Example A-14, tert-Butyl (2,6-difluoro-3-(2-fluorobenzyl)-4-(2-(ureidomethyl)pyridin-3-yl)phenyl)carbamate] displayed an IC50 below 300 nM.

As to `CC(C)C(=O)Nc1ccc(-c2cccnc2CNC(N)=O)c(Cc2ccccc2F)c1F` [Example G-2, N-(2-Fluoro-3-(2-fluorobenzyl)-4-(2-(ureidomethyl)pyridin-3-yl)phenyl)isobutylamide], the half-inhibitory concentration (IC50) was in the range of 300 to 30000 nM.

Take `CC(C)(C)OC(=O)Nc1ccc(-c2cccnc2CNC(N)=O)c(Cc2ccccc2F)c1F` [Example A-1, tert-Butyl (2-fluoro-3-(2-fluorobenzyl)-4-(2-(ureidomethyl)pyridin-3-yl)phenyl)carbamate]: the IC50 was below 300 nM.

The compound `CC(C)(C)OC(=O)Nc1ccc(-c2cccnc2CNC(N)=O)c(CN2CCCC(F)(F)C2)c1F` [Example F-6, tert-Butyl (3-((3,3-difluoropiperidin-1-yl)methyl)-2-fluoro-4-(2-(ureidomethyl)pyridin-3-yl)phenyl)carbamate] gave a 50% inhibitory concentration (IC50) of 300 to 30000 nM.

In turn, `CC(C)(C)OC(=O)Nc1ccc(-c2ccnnc2CCC(N)=O)c(Cc2ccccc2F)c1F` [Example C-4, tert-Butyl (4-(3-(3-amino-3-oxopropyl)pyridazin-4-yl)-2-fluoro-3-(2-fluorobenzyl)phenyl)carbamate] gave a half-inhibitory concentration (IC50) below 300 nM.

Compound `NC(=O)CCc1nnccc1-c1ccc(NC(=O)O[C@H]2C[C@H](F)C2)c(F)c1Cc1ccccc1F` [Example C-7, trans-3-Fluorocyclobutyl (4-(3-(3-amino-3-oxopropyl)pyridazin-4-yl)-2-fluoro-3-(2-fluorobenzyl)phenyl)carbamate] came in with an IC50 of 300 to 30000 nM.

With `C[C@H](OC(=O)Nc1ccc(-c2ccnnc2CNC(N)=O)c(Cc2ccccc2F)c1F)C(F)(F)F` [Example C-2, (S)-1,1,1-Trifluoropropan-2-yl (2-fluoro-3-(2-fluorobenzyl)-4-(3-(ureidomethyl)pyridazin-4-yl)phenyl)carbamate], the 50% inhibitory concentration (IC50) is below 300 nM.

For the compound `CC(C)(C)OC(=O)Nc1ccc(-c2ccnnc2CNC(N)=O)c(Cc2ccccc2F)c1F` [Example C-1, tert-Butyl (2-fluoro-3-(2-fluorobenzyl)-4-(3-(ureidomethyl)pyridazin-4-yl)phenyl)carbamate], the IC50 was below 300 nM.

The term IC50 denotes the concentration that gives 50% inhibition.
